This is an account of results in patent publication US20210275640A1, “METHODS FOR ENHANCING PERMEABILITY TO BLOOD-BRAIN BARRIER, AND USES THEREOF” (ACADEMIA SINICA, priority 2014, published 2021).

Assay [1] concerns U-87MG glioblastoma xenograft. The conditions noted are these: for Median Survival: VEGF 0.3 μg/kg where given.
Procedure: The human luciferase-expressing glioblastoma cell line U-87MG was used for all GBM experiments. Cells were routinely cultured in EMEM with 10% FBS, at 37° C. with 5% CO2.
BALB/c nude mice were orthotropically xenografted with U87 glioma cells (2×10^5) by stereotactic (2 mm right and 1 mm posterior to the bregma, 3.5 mm deep from the dura) injection into the brain. Mouse tumor progression was measured by IVIS at different time points (0, 1, 3, 7 . . . every 7 days until 60 days).
The DNA methylating drug temozolomide (TMZ) was used as therapy for GBM model mice. […] Tumor growth was monitored by in vivo bioluminescent imaging. Mice were observed over 60 days and their survival rates recorded on a Kaplan-Meier survival curve.
Assay [2] deals with blood-brain barrier (BBB). The assay can be described thus: Penetration of PEGylated fluorescent nanoparticles through the BBB (IVIS, immunohistochemistry). It is filed as in vivo, FVB mice. The note with it: 0.3 μg/Kg VEGF iv 45 min before PEGylated nanoparticles. The text has this:
COOH-modified nanoparticles (20 to 500 nm) were covalently modified with methoxy (MeO)-PEG-amine (NH2) according to previously published protocols (Nance et al., Sci Transl Med 4(149): 149ra119; 2012). PEGylated fluorescent nanoparticles of 20 nm, 100 nm and 500 nm were used to investigate the biodistribution and extravasation after intravenous injection and perfusion into FVB mice. These nanoparticles were quantified by IVIS and immunohistochemistry.
All IVIS images were taken using a Xenogen IVIS Spectrum device (PerkinElmer, Waltham, Mass.).
The mice were subjected to perfusion following routine procedures 30 minutes after injection of the nanoparticles and the brain tissues were analyzed by IVIS imaging and immunohistochemistry. FIG. 2, panel A. The amount of nanoparticles accumulated in the brain tissue (i.e., across the BBB) was determined by measuring the intensity of the fluorescent signals. Results are illustrated in FIG. 2, panels B-D.

Assay [3] concerns blood-brain barrier (BBB).
For assay [4], the system named is blood-brain barrier (BBB). This is another data set of the same source.
In assay [5] the test system is MCAO ischaemic stroke model. The assay can be described thus: Middle Cerebral Artery Occlusion (MCAO) model, hMSC cell therapy with VEGF pre-treatment. It is filed as in vivo, rats. The text has this:
The procedure published by Boyko and colleagues (Boyko, et al., Journal of Neuroscience Methods 193(2): 246-253; 2010) was used to create a middle cerebral artery occlusion (MCAO) model in rats. In brief, the left side carotid bifurcation was exposed with a self-retractor. After carefully separating the […] (ICA) from peripheral soft tissue, a small opening was created at the proximal ICA. Silicon-coated 4-0 monofilament nylon was inserted from the opening and penetrated forward to the beginning of middle cerebral artery (MCA). An O2C oximeter was used to transcranially monitor the ipsilateral MCA blood flow. Once blood flow decreased successfully, the nylon suture was fixed in situ, mimicking ischaemic stroke. After 90 minutes of ischaemic injury, the suture was removed, allowing reperfusion. A stable and reproducible cerebral infarction could be created with this procedure. […] MCAO model rats were divided into four groups: […] Discosoma sp. Red (Ds-Red)-expressing human mesenchymal stem cells (hMSCs) were used for MCAO cell therapy. […] To evaluate the infarction size, rats were sacrificed three days after ischaemic-reperfusion injury and treatment. […] Brain slices were then scanned and the infarction size was calculated by measuring the pale area with ImageJ software. […]

The subject of assay [6] is U87 MG human glioblastoma xenograft. The assay can be described thus: Effect of intravenous VEGF on tumor luminescence in U87 MG intracranial xenograft (IVIS). Type of assay: in vivo, BALB/c NU mice. The conditions noted are these: paired t-test per mouse.

Several values for one entry are separate records, joined by “and”; a condition that tells them apart may be missing. Identical values can stand only once. Like-named read-outs stand apart in the source and are kept apart here.

Regarding `Cn1nnc2c(C(N)=O)ncn2c1=O` [TMZ, temozolomide], in assay [1] (5 mg/kg TMZ, vs GBM mice not treated by TMZ), the “Delay of GBM growth” value is “at least 20 days”. Besides, in assay [1] (GBM mice, TMZ 5 mg/kg), the “Median Survival vs vehicle (% increase)” value is given as 31.58 % increase and the “Median Survival” value worked out at 50 days. Moreover, in assay [1] (GBM mice, TMZ 20 mg/kg), the “Median Survival vs vehicle (% increase)” value came to 31.58 % increase and the “Median Survival” value is on record as 50 days.

As to “vascular endothelial growth factor [VEGF]”, the “Nanoparticles crossing the BBB (fluorescence intensity in brain)” value in assay [2] is recorded as “facilitated the nanoparticles to cross BBB”. For the same compound, in assay [3] (0.3 μg/kg VEGF), the “Persistence of increased BBB permeability” value is reported as “at least 60 min” and the “Time of maximum BBB permeability after VEGF” value is “about 45 min”. For the same compound, in assay [3] (0.3 μg/kg VEGF, EB injected after VEGF), the “Time after VEGF injection at which significant BBB permeability increase was observed” value came to 15 min. The “Time to return to normal BBB permeability” value in assay [3] (after VEGF administration) was determined as 2 h. Moreover, the “Duration of increased BBB permeability” value in assay [3] (low dose VEGF) is on record as “about 1 hr”. Further, in assay [3] (mice, VEGF 0.1-2.0 μg/kg, vs saline control), the “BBB permeability of EB (Evans Blue content of brain tissue)” value is “increased BBB permeability”. The “Time of peak BBB permeability after VEGF administration” value in assay [3] (summary statement) was found to be 45 min. Moreover, the “Increase of BBB permeability” value in assay [3] (temporary increase after VEGF administration) is “approximately three-fold”. Further, in assay [1] (GBM mice, TMZ 5 mg/kg), the “Median Survival with VEGF vs TMZ alone (% increase)” value was 10 % increase. In addition, the “Delay in tumor growth by TMZ with VEGF pre-treatment” value in assay [1] (VEGF 0.3 μg/kg before 5 mg/kg TMZ) is listed as “further enhanced the delay in tumor growth”. In assay [4] (5 minutes after 0.2 mmol/kg gadolinium contrast agent, given 45 min after VEGF), the “Cortex, signal to noise ratio T1WI Post-iv” value was determined as 58.30. The “Increase % of signal to noise ratio (detectable level of gadolinium contrast agent in brain)” value in assay [4] (average, VEGF 0.3 ug/kg pre-treatment) came to 15.5%. Besides, the “Signal to noise ratio (SNR) enhancement, individual mice” value in assay [4] (each of the 3 VEGF-treated mice) is 17% and 14% and 15.5%. Further, in assay [5] (MCAO, VEGF pre-treatment 0.3 μg/kg), the Brain infarction entry is recorded as “reduced the brain infarction”. Moreover, the “hMSCs delivered to the brain (Ds-Red fluorescent intensity)” value in assay [5] (hMSCs 35 min after 0.3 μg/kg VEGF, vs control) is given as “more hMSCs were delivered to the brain”. Also, in assay [6], the “Change of tumor size from D21 to D27” value was “tumors were larger”.
